Experimental data from patent publication US7745481B2, “Methods and compositions for the treatment and prevention of tumors, tumor-related disorders and cachexia” (Daiichi Sankyo Company, Limited, priority 1997, dated 2010).

Columns and labels:
Assay type in all cases: in vivo
[1] = system: mouse colon cancer Colon 26 cells; test: Test of anticachexia effects in mice bearing mouse colon cancer Colon 26 cells; conditions: for Inhibition of mouse tumor cachexia and recovery of body weight loss (in words): Example 4, written in present tense, no data; for Body Weight Recovery Rate (%): day 19, (Δgt−Δgc1)/(Δgc2−Δgc1)×100; for Weight Gain (Δg): day 19 after tumor cell transplantation, female CDF1 mice 8 weeks old; for Average Weight Gain (Δg): 22 days after tumor transplantation, female CDF1 mice 16 weeks old, control −4.2
From the text: The test animals were CDF1 mice (females, 8 weeks old). They were employed in groups of 10 for each test. 1×10^6 mouse colon cancer Colon 26 cells were transplanted subcutaneously into each animal.
The test compounds were Compounds No. 1-94 and 2-78 as shown above in Tables 1 and 2, respectively, and having the following formulae: […]
Each test compound was suspended in sterilized distilled water containing 0.5% w/v carboxymethyl cellulose (CMC) and administered orally once per day starting on the day of the tumor cell transplantation.
Each test animal was weighed immediately after tumor cell transplantation, and the weight (A g) was recorded. Each animal was then weighed on day 19 after tumor cell transplantation, and the weight (B g) was recorded. The weight gain on day 19 after tumor cell transplantation was calculated as B−A=Δgt for the test animals. The experiment was repeated with two control groups: the first control group (control group 1) was transplanted with the tumor cells but were not treated with any test compound, and the weight gain is reported as Δgc1; the second control group (control group 2) were not transplanted with the tumor cells and were not treated with any test compound, and the weight gain is reported as Δgc2. The body weight recovery rate was determined according to the following formula based on the weight gain on day 19 after tumor cell transplantation, and this value was used as an indicator of the anticachexia effect. Body weight recovery rate (%)=(Δgt−Δgc1)/(Δgc2−Δgc1)×100
(§1) The procedure described in Example 1 was repeated, but using the compound of formula (III) as the test compound, and comparing the weight gain (Δgt) of the test group of animals to which the compound of formula (III) had been administered with a control group (Δgc) into which the tumor cells had been transplanted but to which no anti-tumor compound had been administered. The test animals were female CDF1 mice, 16 weeks old. Also, the weight gain was measured 22 days after tumor transplantation. The average body weight of each group of animals immediately after tumor transplantation was 25 to 26 g.
as §1, with “Example 2” for “Example 1”, “formula (IV)” for “formula (III)”, “mice, 7” for “mice, 16”, “measured 15” for “measured 22”, “was 20” for “was 25”, “to 21” for “to 26”
Test compounds [the compounds of formula (V), (VI), (VII), (VIII), (IX), (X), (XI), (XII), (XIII) and (XIV)] are administered in the same manner as described in Example 2.

[2] = system: mouse colon cancer Colon 26 cells; test: Life-prolonging activity test in mice bearing Colon 26 cells; conditions: for Life-prolongation (in words): Example 7, animals of Examples 3 and 4, present tense, no data; for Life-prolonging Index (%): (St/Sc−1)×100
Protocol: Observation of the mice used in Example 1 above was continued. The life-prolonging index was determined, based on the number of days each mouse survived, and this value was then used as an indicator of the life-prolonging effects of the test compounds.
It should be noted that, in the case of the group of mice treated with a test compound, oral administration of the respective compound once daily was continued on day 20 after tumor cell transplantation and beyond as well. Life-prolonging index (%)=(St/Sc−1)×100 • St: Median value of survival time (days) of the group of mice treated with a test compound • Sc: Median value of survival time (days) of the control group which were […].
The experiment reported in Example 5 was repeated with the animals used in Example 2. In the case of the group of mice treated with a test compound, oral administration of the respective compound once daily was continued on day 23 after tumor cell transplantation and beyond as well.
The experiment reported in Example 5 is repeated with the animals used in Examples 3 and 4.

[3] = system: mouse malignant melanoma B16-BL6 cells; test: Inhibitory effect on lung metastasis of mouse malignant melanoma B16-BL6 cells
Protocol: Groups of mice, each group containing ten C57BL/6 mice (female, age: 8 weeks) were transplanted intravenously into the tail vein with 3×10^4 of mouse malignant melanoma B16-BL6 cells.
The mice were, when necessary, administered intravenously into the tail vein with a bacterial lipopolysaccharide (LPS) in an amount of 3 μg each within one hour before transplantation of the melanoma cells so as to accelerate lung metastasis of the melanoma [M. J. Anasagasti et al., J. Natl. Cancer Research, 89, 645-651 (1997).]
As test compounds, Compound No. 2-118, a compound of formula (IV), a compound of formula (V) and indomethacin were employed, and each was suspended in sterilized distilled water containing 0.5% w/v of carboxymethyl cellulose (CMC), and the suspensions were orally administered at a dose of 1 mg/kg per day for five days starting from the day of the melanoma cell transplantation.
Inhibitory activities on lung metastasis of the melanoma cells were evaluated in terms of the lung metastasis inhibitory rate (LMI %) by counting the number of metastatic colonies in the lung on the 10th day after intravenous transplantation of the mouse malignant melanoma B16-BL6 cells at the tail. LMI(%)=(1−Nt/Nc)×100 • Nt: Numbers of lung metastatic colonies on the 10th day in groups administered with the test compounds; and • Nc: Numbers of lung metastatic colonies on the 10th day in control groups which were not administered with the test compounds.

[4] = 1 mg/kg oral once daily, mice of Example 1
[5] = 1 mg/kg oral once daily, mice of Example 1, untreated 29.0
[6] = 3 mg/kg oral once daily, mice of Example 1
[7] = 3 mg/kg oral once daily, mice of Example 1, untreated 29.0
[8] = 10 mg/kg oral once daily, mice of Example 1
[9] = 10 mg/kg oral once daily, mice of Example 1, untreated 29.0

CS(=O)(=O)Nc1cc2occ(NC=O)c(=O)c2cc1Oc1ccccc1 [(IX), N-(3-formylamino-4-oxo-6-phenoxy-4H-1-benzopyran-7-yl)methanesulfonamide]
Inhibition of mouse tumor cachexia and recovery of body weight loss (in words) [1]: inhibit mouse tumor cachexia and recover loss of average of body weight
Life-prolongation (in words) [2]: exhibit pronounced life-prolongation

Cc1cnc(NC(=O)C2=C(O)c3ccccc3S(=O)(=O)N2C)s1 [(VI), 4-hydroxy-2-methyl-N-(5-methylthiazol-2-yl)-2H-1,2-benzothiazine-3-carboxamide-1,1-dioxide]
Inhibition of mouse tumor cachexia and recovery of body weight loss (in words) [1]: inhibit mouse tumor cachexia and recover loss of average of body weight
Life-prolongation (in words) [2]: exhibit pronounced life-prolongation

CS(=O)(=O)Nc1ccc([N+](=O)[O-])cc1Oc1ccccc1 [(VII), N-(4-Nitro-2-phenoxyphenyl)methanesulfonamide]
Inhibition of mouse tumor cachexia and recovery of body weight loss (in words) [1]: inhibit mouse tumor cachexia and recover loss of average of body weight
Life-prolongation (in words) [2]: exhibit pronounced life-prolongation

Cc1nc(C2CCCCC2)c(-c2ccc(S(N)(=O)=O)c(F)c2)o1 [(VIII), 4-(4-cyclohexyl-2-methyloxazol-5-yl)-2-fluorobenzenesulfonamide]
Inhibition of mouse tumor cachexia and recovery of body weight loss (in words) [1]: inhibit mouse tumor cachexia and recover loss of average of body weight
Life-prolongation (in words) [2]: exhibit pronounced life-prolongation

CCN1CC/C(=C\c2cc(C(C)(C)C)c(O)c(C(C)(C)C)c2)S1(=O)=O [(X), (E)-2-ethyl-5-(3,5-di-t-butyl-4-hydroxy)benzylidene-1,2-isothiazolidine-1,1-dioxide]
Inhibition of mouse tumor cachexia and recovery of body weight loss (in words) [1]: inhibit mouse tumor cachexia and recover loss of average of body weight
Life-prolongation (in words) [2]: exhibit pronounced life-prolongation

CS(=O)(=O)c1ccc(C2=C(c3ccc(F)cc3)CCC2)cc1 [(XI), 1-(4-methanesulfonylphenyl)-2-(4-fluorophenyl)cyclopentene]
Inhibition of mouse tumor cachexia and recovery of body weight loss (in words) [1]: inhibit mouse tumor cachexia and recover loss of average of body weight
Life-prolongation (in words) [2]: exhibit pronounced life-prolongation

CS(=O)(=O)c1ccc(C2=C(c3ccccc3)C(=O)OC2)cc1 [(XII), 3-phenyl-4-(4-methanesulfonylphenyl)-5H-furan-2-one]
Inhibition of mouse tumor cachexia and recovery of body weight loss (in words) [1]: inhibit mouse tumor cachexia and recover loss of average of body weight
Life-prolongation (in words) [2]: exhibit pronounced life-prolongation

CS(=O)(=O)c1ccc(C2=C(c3cc(F)cc(F)c3)C(=O)CC2)cc1 [(XIII), 2-(3,5-difluorophenyl)-3-(4-methanesulfonylphenyl)-2-cyclopenten-1-one]
Inhibition of mouse tumor cachexia and recovery of body weight loss (in words) [1]: inhibit mouse tumor cachexia and recover loss of average of body weight
Life-prolongation (in words) [2]: exhibit pronounced life-prolongation

Cc1onc(-c2ccccc2)c1-c1ccc(S(N)(=O)=O)cc1 [(XIV), 4-[5-methyl-3-phenylisoxazol-4-yl)benzenesulfonamide]
Inhibition of mouse tumor cachexia and recovery of body weight loss (in words) [1]: inhibit mouse tumor cachexia and recover loss of average of body weight
Life-prolongation (in words) [2]: exhibit pronounced life-prolongation

CSc1ccc(-n2cc(C)cc2-c2ccc(S(N)(=O)=O)cc2)cc1 [Compound 1-94, 4-methyl-1-(4-methylthiophenyl)-2-(4-sulfamoylphenyl)pyrrole]
Body Weight Recovery Rate (%) ([1]; 1 mg/kg oral once per day): 78%
Weight Gain (Δg) ([1]; 1 mg/kg oral once per day): 2.2 g
Body Weight Recovery Rate (%) ([1]; 3 mg/kg oral once per day): 89%
Weight Gain (Δg) ([1]; 3 mg/kg oral once per day): 2.7 g
Body Weight Recovery Rate (%) ([1]; 10 mg/kg oral once per day): 98%
Weight Gain (Δg) ([1]; 10 mg/kg oral once per day): 3.1 g
Life-prolonging Index (%) [2, 4]: 67%
Survival Period (median: days) [2, 5]: 48.5 days
Life-prolonging Index (%) [2, 6]: 21%
Survival Period (median: days) [2, 7]: 35.0 days
Life-prolonging Index (%) [2, 8]: 55%
Survival Period (median: days) [2, 9]: 45.0 days

CCOc1ccc(-c2cc(C)cn2-c2ccc(S(N)(=O)=O)cc2)cc1 [Compound 2-78]
Body Weight Recovery Rate (%) ([1]; 1 mg/kg oral once per day): 85%
Weight Gain (Δg) ([1]; 1 mg/kg oral once per day): 2.5 g
Body Weight Recovery Rate (%) ([1]; 3 mg/kg oral once per day): 85%
Weight Gain (Δg) ([1]; 3 mg/kg oral once per day): 2.5 g
Body Weight Recovery Rate (%) ([1]; 10 mg/kg oral once per day): 88%
Weight Gain (Δg) ([1]; 10 mg/kg oral once per day): 2.6 g
Life-prolonging Index (%) [2, 4]: 55%
Survival Period (median: days) [2, 5]: 45.0 days
Life-prolonging Index (%) [2, 6]: 74%
Survival Period (median: days) [2, 7]: 50.5 days
Life-prolonging Index (%) [2, 8]: 67%
Survival Period (median: days) [2, 9]: 48.5 days

CS(=O)(=O)c1ccc(C2=C(c3ccc(F)c(F)c3)C(=O)OC2)cc1 [Compound (III), 3-(3,4-difluorophenyl)-4-(4-methanesulfonylphenyl)-5H-furan-2-one]
Average Weight Gain (Δg) ([1]; 1 mg/kg oral once per day): 0.0 g
Average Weight Gain (Δg) ([1]; 3 mg/kg oral once per day): 0.3 g
Average Weight Gain (Δg) ([1]; 10 mg/kg oral once per day): 0.9 g
Inhibition of mouse tumor cachexia and weight loss (in words) ([1]; Examples 1-3, 1-10 mg/kg oral): inhibited mouse tumor cachexia and reduced weight loss
Survival Period (median: days) ([2]; 1 mg/kg oral once daily, mice of Example 2 (16 weeks old), untreated 23.0): 40.5 days
Life-prolonging Index (%) ([2]; 1 mg/kg oral once daily, mice of Example 2): 76%
Survival Period (median: days) ([2]; 3 mg/kg oral once daily, mice of Example 2 (16 weeks old), untreated 23.0): 37.5 days
Life-prolonging Index (%) ([2]; 3 mg/kg oral once daily, mice of Example 2): 63%
Survival Period (median: days) ([2]; 10 mg/kg oral once daily, mice of Example 2 (16 weeks old), untreated 23.0): 43.5 days
Life-prolonging Index (%) ([2]; 10 mg/kg oral once daily, mice of Example 2): 91%

COc1ccc2c(c1)c(CC(=O)O)c(C)n2C(=O)c1ccc(Cl)cc1 [Indomethacin, reference compound]
Inhibition of lung metastasis (in words) ([3]; 1 mg/kg oral, lung metastasis accelerating conditions (LPS)): had no such inhibitory activity
LMI (%) lung metastasis inhibitory rate ([3]; LPS 3 μg i.v. before transplantation, 1 mg/kg per day oral for five days, colonies counted on 10th day, C57BL/6 mice): −1%
